# Data reported in PubChem BioAssay (NCI).
#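 Briefly, cells in 96-well plates were exposed to five compound concentrations for 48 h, and endpoints were estimated by linear interpolation. GI50: concentration for 50% inhibition of growth. TGI is the concentration that stops growth completely.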
# How the values were obtained:
# Test in all cases: inhibition of tumour cell growth, NCI panel, 48 h
# [1] = test system: 786-0 renal
# [2] = test system: A549 NSCLC
# [3] = test system: ACHN renal
# [4] = test system: BT-549 breast
# [5] = test system: CAKI-1 renal
# [6] = test system: CCRF-CEM leukemia
# [7] = test system: COLO 205 colon
# [8] = test system: DU-145 prostate
# [9] = test system: EKVX NSCLC
# [10] = test system: HCC-2998 colon
# [11] = test system: HCT-116 colon
# [12] = test system: HCT-15 colon
# [13] = test system: HL-60(TB) leukemia
# [14] = test system: HOP-62 NSCLC
# [15] = test system: HOP-92 NSCLC
# [16] = test system: HS 578T breast
# [17] = test system: HT29 colon
# [18] = test system: IGROV1 ovarian
# [19] = test system: K-562 leukemia
# [20] = test system: KM12 colon
# [21] = test system: LOX IMVI melanoma
# [22] = test system: M14 melanoma
# [23] = test system: MALME-3M melanoma
# [24] = test system: MCF7 breast
# [25] = test system: MDA-MB-231 breast
# [26] = test system: MDA-MB-435
# [27] = test system: MOLT-4 leukemia
# [28] = test system: NCI-H226 lung
compound,measurement,setting,value
CC(C)(Oc1ccc(Cl)cc1)C(=O)NC1C2CC3CC1CC(NS(C)(=O)=O)(C3)C2 (stereo not given),GI50,[1],37.4 µM
same,TGI,[1],> 100 µM
same,GI50,[2],> 100 µM
same,TGI,[2],> 100 µM
same,GI50,[3],27.4 µM
same,TGI,[3],> 100 µM
same,GI50,[4],29.1 µM
same,TGI,[4],83.2 µM
same,GI50,[5],> 100 µM
same,TGI,[5],> 100 µM
same,GI50,[6],39.1 µM
same,TGI,[6],> 100 µM
same,GI50,[7],> 100 µM
same,TGI,[7],> 100 µM
same,GI50,[8],> 100 µM
same,TGI,[8],> 100 µM
same,GI50,[9],> 100 µM
same,TGI,[9],> 100 µM
same,GI50,[10],> 100 µM
same,TGI,[10],> 100 µM
same,GI50,[11],38.5 µM
same,TGI,[11],> 100 µM
same,GI50,[12],> 100 µM
same,TGI,[12],> 100 µM
same,GI50,[13],22.7 µM
same,TGI,[13],58.8 µM
same,GI50,[14],> 100 µM
same,TGI,[14],> 100 µM
same,GI50,[15],19 µM
same,TGI,[15],69.1 µM
same,GI50,[16],33.2 µM
same,TGI,[16],> 100 µM
same,GI50,[17],> 100 µM
same,TGI,[17],> 100 µM
same,GI50,[18],54.9 µM
same,TGI,[18],> 100 µM
same,GI50,[19],34.3 µM
same,TGI,[19],> 100 µM
same,GI50,[20],> 100 µM
same,TGI,[20],> 100 µM
same,GI50,[21],> 100 µM
same,TGI,[21],> 100 µM
same,GI50,[22],26.2 µM
same,TGI,[22],80.1 µM
same,GI50,[23],55.5 µM
same,TGI,[23],> 100 µM
same,GI50,[24],> 100 µM
same,TGI,[24],> 100 µM
same,GI50,[25],66.8 µM
same,TGI,[25],> 100 µM
same,GI50,[26],> 100 µM
same,TGI,[26],> 100 µM
same,GI50,[27],20.7 µM
same,TGI,[27],84.6 µM
same,GI50,[28],> 100 µM
